Here are results for one molecule from article PMC8450341 (Frontiers in Physiology, 2021).

Structures are written as SMILES. Where two headings read alike, the source gives them in different places. A value given as a limit tells only on which side of the number the result lay.

The subject of data set [1] is calves with hypoxia-induced pulmonary hypertension. Put plainly: Echocardiography in neonatal calf model of hypoxia-induced PH. Type of data set: in vivo, bovine calf. The text has this:
The bovine calf hypoxia model of PH previously reported ([Stenmark et al., 1987]; [Lemler et al., 2000]; [Bartels et al., 2016]) consistently produces significant pulmonary hypertension (mean PAP > 100 mmHg) and subsequent tissue changes on post-mortem examination ([Stenmark et al., 1987]). Animals display blood gas PaO2 and PaCO2 values consistent to severe hypoxia and PH ([Stenmark et al., 1987]; [Lemler et al., 2000]). Male Holstein dairy calves at 7 days of age (45–50 kg) were sourced from a local dairy farm. This study utilized a case comparison design. […] Hypoxic calves (Groups 1 and 2) were exposed to hypobaric hypoxia at simulated elevation of 10,000 feet for 48–72 h to allow acclimation then exposed to hypobaric hypoxia at the study condition of 15,000 feet simulated elevation (PB = 430 mmHg, Hypo-Hyperbaric Chamber Facility, Colorado State University Department of Physiology). The standard exposure interval was 14 days at this elevation. Control normoxic calves remained at ambient Fort Collins pressure (4,950 feet PB = 630 mmHg).
(§1) This dosing regimen was selected to minimize adverse effects based on guidelines for human pediatric patients (Lia Gore MD, Center for Cancer and Blood Disorders, Children’s Hospital Colorado, personal communication.) Group 2 calves received no drug treatment. At this age, the calf digestive system has not matured and the abomasum functions as the sole stomach similar to humans.
Echocardiography was utilized for non-invasive sequential assessment of cardiopulmonary function as described previously ([Lemler et al., 2000]; [Bartels et al., 2016]). […] The progression of pulmonary hypertension was evaluated by sequential echocardiography at the study condition (15,000 feet or normoxia) on study days 4, 8 and terminal day 14. Parasternal long and short axis recordings were obtained over 3–4 cardiac cycles, together with M-mode traces as indicated, using GE Echo PACS (General Electric, Chicago, IL, United States) or MicroDicom^1 software. Echocardiographic findings consistent with PH (abnormal RV size and function), or interventricular septum abnormalities including abnormal motion or flattening were evaluated ([Boon, 2011]). Septal motion and flattening were further quantitated by eccentricity index EI on short-axis views with EchoPACS. Tricuspid or mitral valve regurgitation was scored qualitatively as trace, mild, moderate or severe. Global RV function was assessed qualitatively. When RV images on long-axis included the entire chamber, RV fractional area change (FAC) was calculated with EchoPACS. RV fractional shortening was measured from M-mode recordings using MicroDicom. Calves were monitored following each non-terminal echo procedure for recovery including standing and interacting normally, and normal milk intake.

Data set [2] has as its system calves in normoxic or hypoxic conditions. Put plainly: Clinical signs and blood chemistry during and after dosing. Type of data set: in vivo, bovine calf.
Text: as §1

Data set [3] relates to brain natriuretic peptide (BNP) and skeletal muscle alpha-actin mRNAs. Put plainly: Real-time PCR of genes in RV hypertrophic remodeling. Type of data set: in vivo, bovine calf. The procedure:
(§2) At the conclusion of the study period, calves were deeply anesthetized and euthanized. Tissue samples from right ventricle free wall and distal lung parenchyma were snap frozen in liquid nitrogen for laboratory analysis. RNA isolation and quantitative PCR were performed as described previously ([Frid et al., 2009]). mRNA abundance was quantitated relative to HPRT by the delta Ct method. The following primers were used (5′–3′). Fibronectin, Extracellular Domain A (ED-A Fn), Fwd:[…], Rev:[…]; Tenascin C (TnC), Fwd:G […], Rev:[…] TCCA; Osteopontin (SPPA), Fwd:[…] […]
(§3) (A) Immunoblotting HDAC abundance. RV and lung homogenates were prepared and HDAC abundance was determined by immunoblotting as described in section “Materials and Methods.” Additional untreated control and hypoxic animals were analyzed in parallel for comparison. Protein abundance was quantitated densitometrically relative to beta-actin. *p < 0.05 vs. control (unpaired two-tailed t-test). […] Abundances of indicated mRNAs were quantitated by real-time PCR as described in section “Materials and Methods.” Animals used in the present study were analyzed together with samples from additional untreated hypoxic and normoxic calves (n = 4 each) that were managed according to the same animal protocols described in section “Materials and Methods,” and studied around the same period of time. […]
(Real-time PCR tracks product formation cycle by cycle.)

Data set [4] concerns ED-A Fn, tenascin C, osteopontin and periostin mRNAs. The experiment in a line: Real-time PCR of genes in pulmonary remodeling. Type of data set: in vivo, bovine calf. The method, then:
as §2, §3

For data set [5], the system named is IL-6, CSF2, SDF1, IL1β, IL-1RA, TLR2, POSN mRNAs. The experiment in a line: Pairwise qPCR of inflammatory and matrikine gene expression. Type of data set: in vivo, bovine calf. The settings on record: hypoxic vorinostat-treated vs. untreated calf. The method, then: At the conclusion of the study period, calves were deeply anesthetized and euthanized. Tissue samples from right ventricle free wall and distal lung parenchyma were snap frozen in liquid nitrogen for laboratory analysis. RNA isolation and quantitative PCR were performed as described previously ([Frid et al., 2009]). mRNA abundance was quantitated relative to HPRT by the delta Ct method. The following primers were used (5′–3′). Fibronectin, Extracellular Domain A (ED-A Fn), Fwd:[…], Rev:[…]; Tenascin C (TnC), Fwd:G […], Rev:[…] TCCA; Osteopontin (SPPA), Fwd:[…] CACAGA, Rev:[…]; Periostin (POSTN), Fwd:[…], Rev:CAC […]; Skeletal muscle alpha-actin (ACTA1), Fwd:[…], Rev:GAAGGT […]; Brain natriuretic peptide (NPPB), Fwd:[…], Rev:[…]; Hypoxanthine ribosyl transferase (HPRT), Fwd:[…], Rev:[…].
Figure 2. Comparison of inflammatory and matrikine gene expression in vorinostat treated versus untreated hypoxic calves. mRNA abundance was quantitated as described in Methods. For each indicated mRNA, abundance in the vorinostat-treated PH calf was determined relative to that in the untreated PH calf (indicated by dotted line at unity).

The conditions of data set [6]: cited from earlier work.
Details of data set [7]: method as in Fraczek et al., 2013. The settings on record: dogs, oral; ref Fraczek et al., 2013; cited from earlier work.
The next data set in a line: in vivo. The settings on record: male, Holstein, bovine, serum, po, 235 mg.
Where [8] appears, read: human adult dose of 400 mg daily, ref Iwamoto et al., 2013.

Method for in vivo: Pharmacokinetic parameters were calculated by a non-compartmental model using Phoenix WinNonlin v8.1 ([Wagner, 1993]).

As to `O=C(CCCCCCC(=O)Nc1ccccc1)NO` [vorinostat, suberanilohydroxamic acid], in data set [1] (Hypoxic #1 calf, vorinostat first 5 days, Study Day 14), the “RV Fractional area change (FAC)” value came to 30.1%. The “septal distortion compared to untreated PH calf” value in data set [1] (vorinostat-treated PH calf, apical 4-chamber echo images) was “reduced septal distortion”. In addition, in data set [1] (vorinostat-treated PH calf, day 14, M-mode), the RV fractional shortening is recorded as 20%. Also, in data set [1] (vorinostat-treated hypoxic calf, days 4, 8, and 14), the “degree of RV dysfunction compared to untreated hypoxic calf” value is “consistently less severe”. The “standard blood chemistry values” in data set [2] (data not shown) is “within normal reference intervals”. In data set [2] (during or following active dosing, normoxic or hypoxic conditions), the “adverse clinical signs attributable to vorinostat administration” value is listed as “No adverse clinical signs”. Further, the “RV expression of BNP and skeletal muscle alpha-actin mRNAs” value in data set [3] (hypoxic calf, compared to calves with untreated PH) is on record as “tended to decrease”. Besides, the “RV mRNA abundance (BNP, skeletal muscle alpha-actin) of control calves” value in data set [3] (normoxic control calves) is “not affected”. In data set [4] (hypertensive calves compared to untreated hypertensive calves), the “lung expression of ED-A Fn, TNC, osteopontin and periostin mRNAs” value is “tended to reduce”. Moreover, the “abundance of ED-A Fn, TNC, osteopontin and periostin mRNAs in normoxic animals” value in data set [4] (normoxic animals) is “not affected”. For the same molecule, the “expression of pro-inflammatory mRNAs including IL-6, CSF2, SDF1, IL1β, IL-1RA, TLR2, and the matrikine POSN” value in data set [5] is “reduced expression”. Besides, in data set [6] (setting [8]), the AUC is listed as 4,000–6,000 nM•h. The maximum concentration (Cmax) in data set [6] (setting [8]) is 1000 to 1500 nM. Moreover, the half-life result in data set [6] (humans and other animal species, ref Mohamed et al., 2012, Fraczek et al., 2013, Iwamoto et al.) is “approximately 2 h”. Also, the “Bioavailability of oral vorinostat” value in data set [6] (humans, ref Fraczek et al., 2013) was 43%. Moreover, the Tmax in data set [6] (post-fed humans, ref Iwamoto et al., 2013) is around 4 h; in the data set “in vivo” it was at most 4 h. Also, the bioavailability in data set [7] is 11%.

As a reminder, the Cmax is the peak of the concentration-time curve. What is called Tmax is the time from dosing to the highest level. The bioavailability is dose-corrected exposure relative to a reference, in per cent.
